Consider 37 compounds from PubChem BioAssay AID2252 (Southern Research Specialized Biocontainment Screening …, 2010).

The structures appear in SMILES notation. A value given as a limit tells only on which side of the number the result lay.

This assay relates to THP-1 viability, CellTiter-Glo luminescence, 72 h. Kind of assay: PubChem AID 2252.
`Cc1ccc(C(=O)N2C(=S)C(c3ccc(F)cc3)=NC23CCN(C)CC3)cc1`: the EC50 (in general, the concentration that produces a half-maximal response) was 16.7 µM.
Turning to `O=C(/C=C/c1ccccc1)NC(=S)NNC(=O)c1cnccn1`, the EC50 was 4.6 µM.
For `CCc1c(C)n([O-])c2c([n+]1=O)CCCCC2`, the EC50 was less than 0.1 µM.
In the case of `O=C(NCCCN1CCOCC1)c1sc2cc(Cl)ccc2c1Cl` it was 35.8 µM; in that of `CCc1nn(CCCN2CCN(c3cccc(Cl)c3)CC2)c(=O)n1CCOc1ccccc1`, 42.4 µM.
In the case of `OCCN1CCN(C2Cc3cc(Cl)ccc3Sc3ccc(Cl)cc32)CC1` (configuration not stated) (tested in a mixture with another compound) it was 7.79 µM; in that of `CCN1/C(=C/C(C)=C/c2sc3ccccc3[n+]2CC)Sc2ccccc21`, 0.72 µM; in that of `COc1ccc(CNc2ncnc3c2[nH]c2ccccc23)cc1`, 39.3 µM.
For `C#CCOCCOCCOCCNc1nc(N2CCN(C(=O)CCCCCCCCCCNC(=O)[C@H](CCCCN)n3cc(C[C@@H](C)CC)nn3)CC2)nc(N2CCN(C(=O)CCCCCCCCCCNC(=O)[C@@H]([C@H](C)O)n3cc(C)nn3)CC2)n1` the value was 6.17 µM; for `Nc1c2ccccc2nc2ccccc12`, 4.83 µM; for `CC[n+]1c(/C=C/N(C)c2ccccc2)n(-c2ccccc2)c2ccc(-c3nc4ccccc4s3)cc21`, 0.44 µM.
Turning to `CCCCCCCCC[n+]1cccc2c3ccccc3ccc21`, the EC50 is 0.82 µM.
`CSc1nc2cc(Oc3cccc(Cl)c3Cl)c(Cl)cc2[nH]1`: the EC50 is 43.9 µM.
In the case of `CNC(CC(=O)c1ccc([N+](=O)[O-])cc1)C(Cl)(Cl)Cl` (configuration not stated) it was 9.95 µM; in that of `CN(C)CC/C=C1\c2ccccc2Sc2cc(F)c(Cl)cc21`, 10.8 µM.
For `Oc1ccc(CN2CCN(c3ccccc3)CC2)c2cccnc12` the value was 5.88 µM; for `COc1ccc(C(=O)NC(=S)NNC(=O)c2cnccn2)cc1OC`, 6.82 µM; for `C/C(=N\NC(=O)c1cccc(Br)c1)c1ccccn1`, 1.55 µM.
For `O=[N+]([O-])c1cccc2c(N3CCCC3)ccnc12` the value was 9.77 µM; for `Oc1c(CN2CCCCC2)cc(Br)c2cccnc12`, 2.65 µM; for `CCCCCCCCCCCCCCCCn1cc[n+](C)c1`, 0.74 µM.
`C#CCOCCOCCOCCNc1nc(N2CCN(C(=O)CCCCCCCCCCNC(=O)Cn3cc(C[C@@H](C)O)nn3)CC2)nc(N2CCN(C(=O)CCCCCCCCCCNC(=O)[C@@H]([C@H](C)CC)n3cc(CCCCCN)nn3)CC2)n1`: the EC50 was 9.97 µM.
As for `c1ccc2c(c1)C(=NC1CCCCC1)NC2=NC1CCCCC1`, the EC50 is 4.25 µM.
For `[O-][n+]1cccc2c(Br)cc(Br)c(O)c21` the value was 24.4 µM.
Consider `COc1ccc2[nH]c3c(C)c4ccncc4c(C)c3c2c1`, for which the concentration for a half-maximal effect (EC50) was 1.45 µM.
For `CCn1cc(C(=O)NCCc2ccccc2)c(=O)c2cc(F)c(N3CCN(C)CC3)cc21` the value was 35.4 µM; for `CCOc1ccc(Nc2nc(N)c3ccccc3n2)cc1`, 6.96 µM.
Consider `Clc1ccc(Nc2ccc(NCc3ccccc3)nn2)cc1`, for which the EC50 is 22.4 µM.
Turning to `CCN(CC)C(=S)SSC(=S)N(CC)CC`, the EC50 is 21.9 µM.
In the case of `O=C(N/N=C\c1c[nH]c2ccccc12)c1ccc(O)cc1` it was less than 0.1 µM; in that of `Cc1ccc(C(=O)NCC(=O)NCCc2ccc(S(N)(=O)=O)cc2)s1`, less than 0.1 µM.
For `Nn1cnnc1N/N=C\c1ccc(-c2ccccc2[N+](=O)[O-])o1` the value was 41.3 µM; for `CN(CC(=O)Nc1ccc(F)c(F)c1F)c1cnccn1`, 19.6 µM; for `CC1CC(=O)c2c(cc3c(-c4c(O)cc(O)c5c(O)c6c(cc45)OC(C)CC6=O)c(O)cc(O)c3c2O)O1` (configuration not stated), less than 0.1 µM.
For `Cc1ccc2nc(NCc3ccccc3)[nH]c2c1` the value was 3.85 µM.
On to `O=C1C=C(c2ccc(Cl)cc2)C(=O)N1Nc1ccccc1`, for which the EC50 was 5.96 µM.
In the case of `c1ccc(CN2CCN(c3nc(NCc4ccco4)c4ccccc4n3)CC2)cc1` it was 15.3 µM.
